Molecular target: T1, Poly [ADP-ribose] polymerase tankyrase-1 (Homo sapiens, UniProt O95271)
T1 sequence (O95271 whole entry): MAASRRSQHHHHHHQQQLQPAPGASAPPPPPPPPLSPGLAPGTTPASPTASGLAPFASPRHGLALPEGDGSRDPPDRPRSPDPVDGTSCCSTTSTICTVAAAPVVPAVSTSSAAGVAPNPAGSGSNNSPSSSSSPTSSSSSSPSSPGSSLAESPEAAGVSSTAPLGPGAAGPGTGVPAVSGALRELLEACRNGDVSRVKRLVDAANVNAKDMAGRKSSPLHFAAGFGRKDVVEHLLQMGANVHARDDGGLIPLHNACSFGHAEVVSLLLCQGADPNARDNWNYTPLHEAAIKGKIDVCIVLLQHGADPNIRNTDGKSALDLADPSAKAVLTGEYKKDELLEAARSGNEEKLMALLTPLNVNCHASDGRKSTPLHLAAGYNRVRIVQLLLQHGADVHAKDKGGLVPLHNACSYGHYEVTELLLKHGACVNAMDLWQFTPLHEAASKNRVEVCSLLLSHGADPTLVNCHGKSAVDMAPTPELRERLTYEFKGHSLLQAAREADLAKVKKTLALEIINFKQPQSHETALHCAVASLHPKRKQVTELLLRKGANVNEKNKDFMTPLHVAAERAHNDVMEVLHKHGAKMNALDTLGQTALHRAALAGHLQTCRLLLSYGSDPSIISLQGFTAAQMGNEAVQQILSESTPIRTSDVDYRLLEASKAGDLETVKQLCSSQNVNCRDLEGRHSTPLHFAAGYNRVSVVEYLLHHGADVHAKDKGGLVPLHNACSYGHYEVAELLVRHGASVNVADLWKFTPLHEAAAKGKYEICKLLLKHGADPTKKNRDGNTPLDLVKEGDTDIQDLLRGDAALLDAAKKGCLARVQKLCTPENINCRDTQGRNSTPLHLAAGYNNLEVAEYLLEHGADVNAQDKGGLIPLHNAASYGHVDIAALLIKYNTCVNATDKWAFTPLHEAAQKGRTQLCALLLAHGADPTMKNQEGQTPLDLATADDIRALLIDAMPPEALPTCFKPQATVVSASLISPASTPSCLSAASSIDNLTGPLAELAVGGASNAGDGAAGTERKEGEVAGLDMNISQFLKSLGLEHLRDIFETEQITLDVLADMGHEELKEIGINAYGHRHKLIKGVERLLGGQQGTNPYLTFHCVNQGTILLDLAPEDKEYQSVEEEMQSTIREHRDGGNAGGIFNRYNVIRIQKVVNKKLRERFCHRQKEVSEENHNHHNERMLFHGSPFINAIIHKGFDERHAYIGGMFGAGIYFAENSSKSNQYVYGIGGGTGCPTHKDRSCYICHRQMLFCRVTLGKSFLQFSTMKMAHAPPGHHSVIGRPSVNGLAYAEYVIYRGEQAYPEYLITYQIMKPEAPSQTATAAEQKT
Assay: Tankyrase Biochemical Assays: The tankyrase 1 biochemical activity of the compounds was assayed in the following assay buffer (50 mM MOPS pH7.5, 100 mM NaCl, […] MgCl2, 0.01% Tween-20, 0.05% BSA, and 1 mM DTT) as follows: […] of 6×HIS-tankyrase 1 (1091-1325) was incubated in the presence of compound (DMSO […] final) in a Perkin Elmer 384 well Proxiplate Plus™ (cat. no. 6008289) with 400 n

IC50 [nM]	SMILES
5.18	CC1(C)OC(=O)N([C@H]2CC[C@H](NC(=O)c3csc(-c4ccccc4)n3)CC2)[C@H]1c1ccccc1
11.4	CC1(C)OC(=O)N([C@H]2CC[C@H](NC(=O)c3ccnc(-c4ccccc4)n3)CC2)[C@H]1c1ccccc1
167	CC1(C)OC(=O)N(c2ccc(-c3cc(-c4ncco4)c[nH]c3=O)cc2)[C@H]1c1ccccc1

Source: ChEMBL document CHEMBL3886724, “Oxazolidinone compounds and derivatives thereof” (2016)
